Test results from ChEMBL document CHEMBL4808180, “Identification of 2,2-Dimethylbutanoic Acid (HST5040), a Clinical Development Candidate for the Treatment of Propionic Acidemia and Methylmalonic Acidemia” (J Med Chem, 2021).

Legend:
[1] = Apparent permeability across apical to basal side in human MDCK2-MDR1; assay type: ADME, Canis lupus familiaris; conditions: dog, MDCK-MDR1
[2] = Drug excretion in Gottingen minipig feces at 10 mg/kg, po using radiolabeled compound by quantitative whole-body autoradiography; assay type: ADME, organism-based, Sus scrofa domesticus; conditions: pig, in vivo
[3] = Drug level in Gottingen minipig blood at 10 mg/kg, po using radiolabeled compound measured after 96 hrs by quantitative whole-body autoradiography; assay type: ADME, organism-based, Sus scrofa domesticus; conditions: pig, in vivo, BLD = below limit of detection
[4] = target: T1, Organic anion transporter 3 (Homo sapiens, UniProt Q8TCC7); assay: Inhibition of human OAT3 assessed as reduction in OAT3-mediated tenofovir transport
T1 sequence (Q8TCC7 whole entry): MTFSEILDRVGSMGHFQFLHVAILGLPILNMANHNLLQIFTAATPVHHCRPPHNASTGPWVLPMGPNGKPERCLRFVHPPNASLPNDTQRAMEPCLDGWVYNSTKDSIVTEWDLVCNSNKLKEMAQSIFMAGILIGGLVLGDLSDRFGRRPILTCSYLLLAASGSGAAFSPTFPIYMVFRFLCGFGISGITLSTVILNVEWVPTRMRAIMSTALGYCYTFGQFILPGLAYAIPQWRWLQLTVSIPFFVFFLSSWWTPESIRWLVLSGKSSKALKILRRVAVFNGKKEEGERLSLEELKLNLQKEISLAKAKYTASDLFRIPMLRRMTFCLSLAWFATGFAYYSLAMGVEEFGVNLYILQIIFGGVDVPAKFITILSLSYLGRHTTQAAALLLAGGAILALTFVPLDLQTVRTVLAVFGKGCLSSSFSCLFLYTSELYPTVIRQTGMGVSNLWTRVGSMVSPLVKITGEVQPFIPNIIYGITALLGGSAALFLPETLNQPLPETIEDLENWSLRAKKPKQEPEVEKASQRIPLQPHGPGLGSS

[5] = Cmax in Gottingen minipig at 10 mg/kg, po using radiolabeled compound by quantitative whole-body autoradiography; assay type: ADME, organism-based, Sus scrofa domesticus; design: route oral, dose 10 mg/kg; conditions: pig, in vivo
[6] = Cmax in Sprague-Dawley rat at 200 mg/kg, po; assay type: ADME, organism-based; design: route oral, dose 200 mg/kg; conditions: in vivo
[7] = Drug metabolism in Gottingen minipig urine assessed as HST5040-carnitine metabolite formation at 10 mg/kg administered as single dose by LC/MS analysis; assay type: ADME, organism-based, Sus scrofa domesticus; conditions: pig, in vivo
[8] = Drug metabolism in Sprague-Dawley rat feces assessed as HST5040-glucuronide metabolite formation at 10 mg/kg administered as single dose by LC/MS analysis; assay type: ADME, organism-based; conditions: in vivo
[9] = Tmax in Sprague-Dawley rat at 200 mg/kg, po; assay type: ADME, organism-based; conditions: in vivo
[10] = target: T2, Solute carrier family 22 member 6 (Homo sapiens, UniProt Q4U2R8); assay: Inhibition of human OAT1 assessed as reduction in OAT1-mediated tenofovir transport
T2 sequence (Q4U2R8 whole entry): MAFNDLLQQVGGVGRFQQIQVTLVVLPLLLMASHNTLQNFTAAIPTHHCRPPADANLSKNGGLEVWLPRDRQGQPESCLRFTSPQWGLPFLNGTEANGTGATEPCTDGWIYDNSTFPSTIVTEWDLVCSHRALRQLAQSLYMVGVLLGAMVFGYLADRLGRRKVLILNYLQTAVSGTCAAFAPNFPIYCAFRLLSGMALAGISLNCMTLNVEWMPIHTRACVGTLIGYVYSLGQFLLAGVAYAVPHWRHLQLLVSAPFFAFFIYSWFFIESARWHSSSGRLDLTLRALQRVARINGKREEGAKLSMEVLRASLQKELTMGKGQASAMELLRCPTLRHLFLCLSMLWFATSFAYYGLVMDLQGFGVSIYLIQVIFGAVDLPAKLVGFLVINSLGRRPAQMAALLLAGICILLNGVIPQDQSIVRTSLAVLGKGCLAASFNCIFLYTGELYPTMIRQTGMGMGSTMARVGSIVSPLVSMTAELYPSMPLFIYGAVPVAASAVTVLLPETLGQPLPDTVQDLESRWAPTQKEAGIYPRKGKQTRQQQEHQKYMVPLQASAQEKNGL

[11] = Half life in Sprague-Dawley rat at 10 mg/kg, po; assay type: ADME, organism-based; conditions: in vivo
[12] = AUC (0 to infinity) in CD1 mouse at 30 mg/kg, po; assay type: ADME, organism-based; design: time infinity, route oral, dose 30 mg/kg; conditions: in vivo
[13] = Reduction of acetyl-CoA in human hepatocytes derived from methylmalonic acidemia patient at 30 uM pretreated for 30 mins followed by 13C-isoleucine addition and measured after 1 hr by MS/MS analysis relative to control; assay type: functional, Hepatocyte; design: scale not given: the % may be the effect or the level left; conditions: time 90 min, 1.5 h
[14] = Reduction of acetyl carnitine in human hepatocytes derived from propionic acidemia patient at 30 uM pretreated for 30 mins followed by 13C-isoleucine addition and measured after 1 hr by MS/MS analysis relative to control; assay type: functional, Hepatocyte; design: scale not given: the % may be the effect or the level left; conditions: time 90 min, 1.5 h
[15] = Tmax in CD1 mouse at 30 mg/kg, iv; assay type: ADME, organism-based; conditions: in vivo
[16] = Drug metabolism in Sprague-Dawley rat feces assessed as HST5040-carnitine metabolite formation at 10 mg/kg administered as single dose by LC/MS analysis; assay type: ADME, organism-based; conditions: in vivo
[17] = Drug metabolism in rat hepatocytes assessed as formation of 2,2-dimethylbutanoic acid-CoA incubated for 1 hrs by MS/MS analysis; assay type: ADME, cell-based; conditions: Hepatocyte
[18] = Reduction of propionyl carnitine in human hepatocytes derived from methylmalonic acidemia patient at 30 uM pretreated for 30 mins followed by 13C-isoleucine addition and measured after 1 hr by MS/MS analysis relative to control; assay type: functional, Hepatocyte; design: scale not given: the % may be the effect or the level left; conditions: time 90 min, 1.5 h
[19] = Half life in CD1 mouse at 300 mg/kg, po; assay type: ADME, organism-based; conditions: in vivo
[20] = Reduction of 2-Methylcitric acid in human hepatocytes derived from methylmalonic acidemia patient at 30 uM pretreated for 30 mins followed by 13C-isoleucine addition and measured after 1 hr by MS/MS analysis relative to control; assay type: functional, Hepatocyte; design: scale not given: the % may be the effect or the level left; conditions: time 90 min, 1.5 h
[21] = Tmax in CD1 mouse at 30 mg/kg, po; assay type: ADME, organism-based; conditions: in vivo
[22] = Reduction of CoASH in human hepatocytes derived from methylmalonic acidemia patient pretreated for 30 mins followed by 13C-isoleucine addition and measured after 1 hr by MS/MS analysis; assay type: functional, cell-based; conditions: hepatocyte
[23] = Half life in Sprague-Dawley rat at 10 mg/kg, iv; assay type: ADME, organism-based; conditions: in vivo
[24] = Ratio of drug level in erythrocyte to plasma in Sprague-Dawley rat; assay type: ADME; conditions: erythrocytes and plasma
[25] = AUC (0 to infinity) in Sprague-Dawley rat at 10 mg/kg, iv; assay type: ADME, organism-based; design: route intravenous, time infinity, dose 10 mg/kg; conditions: in vivo
[26] = Oral bioavailability in CD1 mouse at 30 mg/kg; assay type: ADME, organism-based; conditions: in vivo
[27] = Half life in CD1 mouse at 100 mg/kg, po; assay type: ADME, organism-based; conditions: in vivo
[28] = Drug metabolism in human hepatocytes assessed as beta-oxidation by measuring phase1 metabolite formation at 50 uM measured after 4 hrs; assay type: ADME, cell-based, Hepatocyte
[29] = Half life in Sprague-Dawley rat blood at 10 mg/kg, po by quantitative whole-body autoradiography; assay type: ADME, organism-based; conditions: in vivo
[30] = Induction of toxicity in minipig assessed as increase in vacuole size in the epithelial cells of renal tubules at >=50 mg/kg; assay type: organism-based, Sus scrofa domesticus; conditions: pig, in vivo
[31] = Clearance in CD1 mouse at 30 mg/kg, iv; assay type: ADME, organism-based; conditions: in vivo
[32] = Reduction of acetyl-CoA in human hepatocytes pretreated for 30 mins followed by 13C-isoleucine addition and measured after 1 hr by MS/MS analysis; assay type: functional, Hepatocyte; design: scale not given: the % may be the effect or the level left; conditions: dose 30 µM, 0.5 h
[33] = AUC (0 to infinity) in Sprague-Dawley rat at 200 mg/kg, po; assay type: ADME, organism-based; design: route oral, time infinity, dose 200 mg/kg; conditions: in vivo

**Q.** Which results are given for CCC(C)(C)C(=O)O [DIMEBUTIC ACID]?
**A.** Papp A→B [1]: > 20 ×10⁻⁶ cm/s; Drug excretion [2]: 2.26%; Drug uptake [3]: Bld; IC50 [4]: 3.51 mM; Cmax [5]: 16100 ng/mL; Cmax [6]: 113 µg/mL; Drug metabolism [7]: Metabolite_Detected; Drug metabolism [8]: Metabolite_Detected; Tmax [9]: 25 min; IC50 [10]: 3.86 mM; half-life [11]: 190 min; AUC(0-inf) [12]: 37500 ng·h/mL; Activity [13]: 13.5%; Activity [14]: 54%; Tmax [15]: 7.5 min; Drug metabolism [16]: Metabolite_Detected; EC50 [17]: 202 µM; Activity [18]: -65.9%; half-life [19]: 115 min; Activity [20]: -66.7%; Tmax [21]: 26.3 min; EC50 [22]: 14.1 µM; half-life [23]: 236 min; Kp [24]: 0.649; AUC(0-inf) [25]: 9670 ng·h/mL; bioavailability [26]: 53.4%; half-life [27]: 65.4 min; Drug metabolism [28]: Metabolite_Notdetected; t1/2 [29]: 2.5 h; Activity [30]: Toxic; clearance [31]: 7.28 mL/min/kg; Activity [32]: 20%; AUC(0-inf) [33]: 244 µg·h/mL
